# According to patent US9938495B2, “Composition comprising cryopreservation medium and stem cells obtained by slow-freezing” (FERTIPRO N.V., priority 2013, dated 2018):
# Assays:
# [1] = system: CT5.3-hTERT colon cancer-associated fibroblasts; test: TGF-β-mediated growth inhibition in CT5.3-hTERT cells after cryopreservation (SRB assay, cell counter); assay type: cell-based; conditions: control group (routine culture, not cryopreserved); TGF-β 1 ng/ml for 1 week; n=3
# Experimental: Immortalized CT5.3-hTERT colon cancer-associated fibroblasts have been used to evaluate cellular function following cryopreservation with two different cryopreservation media: • 1) a 10:90 (% V/V) mixture of dimethylsulfoxide (DMSO) and fetal bovine serum (FBS), as known in the art; and • 2) a propylene glycol-based DMSO-free cryopreservation medium as described in Table 1 (hereafter referred to as “PCM”).
# Briefly, early passage cells were cultured in routine culture medium (Dulbecco's Modified Eagle Medium (DMEM) containing 10% FBS, antibiotics and an antifungal product) at 37° C. in a humidified atmosphere with 5% CO2. Semi-confluent cells were harvested by trypsinization and cell concentration was assessed using the trypan blue exclusion method. […]
# The cells of each group were treated with recombinant TGF-β (1 ng/ml) for 1 week. At the end of the experiment, cell concentration was measured using the sulforhodamine B (SRB) assay and an automated cell counter (trypan blue exclusion), respectively. […] Protein content was assessed by the bicinchoninic acid (BCA) test and concentrations were normalized, thus allowing for equal protein load for Western blot analysis. Expression of α-SMA was evaluated using a monoclonal HRP-coupled antibody, directed against this myofibroblast marker. […]
# [2] = system: (MSC)-hTERT mesenchymal stem cells; test: Cryopreservation tests on (MSC)-hTERT mesenchymal stem cells with TGF-β treatment; assay type: cell-based
# Source text: It is noted that further cryopreservation tests on (MSC)-hTERT mesenchymal stem cells using the above-mentioned DMSO/FBS and PCM also show similar results for both cryopreservation media.
substance,measurement,setting,value
TGF-β,inhibition of cell proliferation by TGF-β,[1],79.84+/−4.43
same,effect of TGF-β on α-SMA expression,[2],not to alter α-SMA expression
